Data as given in ChEMBL document CHEMBL1128105, “Synthesis of new azino fused benzimidazolium salts. a new family of DNA intercalating agents. I” (Bioorg Med Chem Lett, 1995).

Test system: HT-29
Assay: In vitro inhibitory activity against colon carcinoma HT-29 cells after 72 hr using in-house program
Type: functional, cell-based
Settings: Homo sapiens, HT-29, 72 h

| SMILES | EC50 [µM] |
| --- | --- |
| c1ccc(Cn2c3ccccc3[n+]3nc4c(c(-c5ccccc5)c23)-c2cccc3cccc-4c23)cc1 | 3.7 |
| CCOC(=O)c1c2c(cc3n(Cc4ccccc4)c4ccccc4[n+]13)-c1cccc3cccc-2c13 | 2.1 |
| Cn1c2ccccc2[n+]2nc3c(cc12)-c1cccc2cccc-3c12 | 3.7 |
| COC(=O)c1ccc(Cn2c3ccccc3[n+]3nc4c(cc23)-c2cccc3cccc-4c23)cc1 | 24 |
| Nn1c2ccccc2[n+]2nc3c(cc12)-c1cccc2cccc-3c12 | 37 |

Next, values leading:

| EC50 [µM] | SMILES |
| --- | --- |
| > 100 | NCCNC(=O)Cn1c2ccccc2[n+]2nc3c(cc12)-c1cccc2cccc-3c12 |
| 1.5 | c1ccc(Cn2c3ccccc3[n+]3nc4c(cc23)-c2cccc3cccc-4c23)cc1 |
| 54 | CCOC(=O)Cn1c2ccccc2[n+]2nc3c(cc12)-c1cccc2cccc-3c12 |
| 1.8 | CCOC(=O)Cn1c2ccccc2[n+]2c(C(=O)OCC)c3c(cc12)-c1cccc2cccc-3c12 |
